Patent US9884063B2, “Amido-substituted azole compounds” (Bayer Pharma Aktiengesellschaft, priority 2014, dated 2018)

Target: T1, TNKS1 (Homo sapiens, UniProt O95271)
T1 sequence (O95271 1-1327): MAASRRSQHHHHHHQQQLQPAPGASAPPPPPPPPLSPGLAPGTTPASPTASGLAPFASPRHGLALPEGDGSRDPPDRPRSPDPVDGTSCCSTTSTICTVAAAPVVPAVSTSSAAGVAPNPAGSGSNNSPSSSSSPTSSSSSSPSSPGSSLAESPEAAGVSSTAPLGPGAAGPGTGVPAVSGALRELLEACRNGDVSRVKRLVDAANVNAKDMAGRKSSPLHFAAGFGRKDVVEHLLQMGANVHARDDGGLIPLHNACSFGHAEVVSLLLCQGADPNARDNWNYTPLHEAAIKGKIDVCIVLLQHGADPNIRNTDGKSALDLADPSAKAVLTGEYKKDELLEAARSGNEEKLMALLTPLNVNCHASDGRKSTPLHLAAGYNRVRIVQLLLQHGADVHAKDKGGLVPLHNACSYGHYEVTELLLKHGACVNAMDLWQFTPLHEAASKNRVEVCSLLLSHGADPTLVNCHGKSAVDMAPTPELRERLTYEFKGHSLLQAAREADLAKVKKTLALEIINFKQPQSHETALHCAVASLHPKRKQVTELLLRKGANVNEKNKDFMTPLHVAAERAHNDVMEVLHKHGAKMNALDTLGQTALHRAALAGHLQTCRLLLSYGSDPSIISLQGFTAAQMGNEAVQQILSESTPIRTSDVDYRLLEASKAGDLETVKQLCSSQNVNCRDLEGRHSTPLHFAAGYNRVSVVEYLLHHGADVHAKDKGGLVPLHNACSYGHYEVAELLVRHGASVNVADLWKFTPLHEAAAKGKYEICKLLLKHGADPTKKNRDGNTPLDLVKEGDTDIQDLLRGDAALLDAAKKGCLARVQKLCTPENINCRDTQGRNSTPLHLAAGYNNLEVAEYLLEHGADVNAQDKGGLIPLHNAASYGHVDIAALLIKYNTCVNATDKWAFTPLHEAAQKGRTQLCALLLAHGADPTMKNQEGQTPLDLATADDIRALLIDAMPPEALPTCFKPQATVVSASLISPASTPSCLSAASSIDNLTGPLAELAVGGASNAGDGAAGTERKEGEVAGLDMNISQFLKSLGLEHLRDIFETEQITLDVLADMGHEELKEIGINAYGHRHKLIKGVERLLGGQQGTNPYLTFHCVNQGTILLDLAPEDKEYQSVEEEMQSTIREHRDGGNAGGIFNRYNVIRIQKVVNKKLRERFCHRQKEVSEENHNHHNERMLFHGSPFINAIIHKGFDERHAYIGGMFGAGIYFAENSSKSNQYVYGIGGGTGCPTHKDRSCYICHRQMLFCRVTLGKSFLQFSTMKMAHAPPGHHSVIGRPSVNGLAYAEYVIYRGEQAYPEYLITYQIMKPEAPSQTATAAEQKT
Test: Modified TNKS1 Assay 2 (auto-parsylation, [3H]-NAD+ SPA)
Format: biochemical
Conditions: 6 nM TNKS1, 96 well
Protocol: The potency of selected compounds according to the invention was assessed applying an modified in vitro inhibition assay. Here, the TNKS1 catalyzed NAD^+-dependent ribosylation of the enzyme itself (auto-parsylation) was detected using [^3H]-NAD^+ as substrate and applying the scintillation proximity assay (SPA) method to detect tritium-labeled, parsylated TNKS1. The intensity of the readout signal is proportional to the incorporated [^3H]-NAD^+. Inhibition of TNKS1 leads to a decreased incorporation of [^3H]-NAD^+ and consequently to a lower readout signal intensity. The concentration of a test compound which inhibits the enzyme activity by 50% (corresponds to half of the normed readout signal intensity) is reported as IC50.
The assay was conducted in a 96 well MTP format with the identical TNKS1 enzyme sample and NAD^+ sample as in the histone ribosylation assay with the following modifications: TNKS1 enzyme sample was diluted with a modified assay buffer (50 mM MES pH 7.0, 1 mM DTT, 0.01% Triton X-100) to a final concentration of 6 nM TNKS1 and 10×NAD^+ solution was diluted with the modified assay buffer (s. above) to a final 0.445×NAD^+ solution doped with 100 Bq/ul [^3H]-NAD^+[Catalog #NET443H050UC, Perkin Elmer, Waltham, Mass., USA]. Substrate solution (10 ul) was incubated with different test compound concentrations (2.5 ul in 10% DMSO in modified assay buffer) or control (2.5 ul 10% DMSO in modified assay buffer only) and enzyme (10 ul) over night at room temperature. Incorporated tritium was measured after addition of 50 ul SPA beads (1 mg/ml) [Catalog #RPNQ0095 20 mg/ml, Perkin Elmer, Waltham, Mass., USA; diluted 1:10 with Dulbecco's phosphate buffered saline, PBS Catalog #D8537, Sigma-Aldrich, Steinheim, Germany] and detection of the photon emission with a beta count plate reader [Wallac MicroBeta®, Perkin Elmer, Waltham, Mass., USA].

Structure (SMILES)	IC50 [nM]
CNC(=O)c1nc[nH]c1C(=O)Nc1ccc(NC(=O)c2cc(OC)ccc2Cl)cc1 [Example 248, N^5-{4-[(2-chloro-5-methoxybenzoyl)amino]phenyl}-N^4-methyl-1H-imidazole-4,5-dicarboxamide]	240
CNC(=O)c1nc[nH]c1C(=O)Nc1ccc(NC(=O)c2ccc(O)cc2Cl)cc1 [Example 122, N^5-{4-[(2-chloro-4-hydroxybenzoyl)amino]phenyl}-N^4-methyl-1H-imidazole-4,5-dicarboxamide]	950
CNC(=O)c1nc[nH]c1C(=O)Nc1ccc(NC(=O)c2ccncc2Cl)cc1 [Example 6, N^5-{4-[(3-chloroisonicotinoyl)amino]phenyl}-N^4-methyl-1H-imidazole-4,5-dicarboxamide]	150
CC(C)(CNC(=O)c1[nH]cnc1C(=O)Nc1ccc(NC(=O)c2ccccc2Cl)cc1)N1CCCCC1 [Example 165, N^4-{4-[(2-chlorobenzoyl)amino]phenyl}-N^5-[2-methyl-2-(piperidin-1-yl)propyl]-1H-imidazole-4,5-dicarboxamide]	30
CNC(=O)c1nc[nH]c1C(=O)Nc1ccc(NC(=O)c2c(F)cc(F)cc2Cl)cc1 [Example 118, N^5-{4-[(2-chloro-4,6-difluorobenzoyl)amino]phenyl}-N^4-methyl-1H-imidazole-4,5-dicarboxamide]	80
CC(C)(CN1CCCCC1)NC(=O)c1[nH]cnc1C(=O)Nc1ccc(NC(=O)c2ccc(F)cc2Cl)cc1 [Example 184, N^4-{4-[(2-chloro-4-fluorobenzoyl)amino]phenyl}-N^5-[2-methyl-1-(piperidin-1-yl)propan-2-yl]-1H-imidazole-4,5-dicarboxamide]	30
O=C(NCCN1CCCCC1)c1nc[nH]c1C(=O)Nc1ccc(NC(=O)c2c(F)cc(F)cc2Cl)cc1 [Example 119, N^5-{4-[(2-chloro-4,6-difluorobenzoyl)amino]phenyl}-N^4-[2-(piperidin-1-yl)ethyl]-1H-imidazole-4,5-dicarboxamide]	2

The remaining lines, values ahead:

IC50 [nM]	Structure (SMILES)
50	O=C(Nc1ccc(NC(=O)c2nc[nH]c2C(=O)NCCN2CCCC2)cc1)c1ccc(F)cc1 [Example 176, N^4-{4-[(4-fluorobenzoyl)amino]phenyl}-N^5-[2-(pyrrolidin-1-yl)ethyl]-1H-imidazole-4,5-dicarboxamide]
60	O=C(Nc1ccc(NC(=O)c2nc[nH]c2C(=O)NCCN2CCC2)cc1)c1ccc(F)cc1 [Example 199, N^5-[2-(azetidin-1-yl)ethyl]-N^4-{4-[(4-fluorobenzoyl)amino]phenyl}-1H-imidazole-4,5-dicarboxamide]
> 10000	CNC(=O)c1nc[nH]c1C(=O)Nc1ccc(NC(=O)c2ccccc2OC(F)(F)F)cc1 [Example 243, N^4-methyl-N^5-(4-{[2-(trifluoromethoxy)benzoyl]amino}phenyl)-1H-imidazole-4,5-dicarboxamide]
40	CNC(=O)c1nc[nH]c1C(=O)Nc1ccc(NC(=O)c2ccc(C)cc2Cl)cc1 [Example 244, N^5-{4-[(2-chloro-4-methylbenzoyl)amino]phenyl}-N^4-methyl-1H-imidazole-4,5-dicarboxamide]
> 10000	O=C(Nc1ccc(NC(=O)c2nc[nH]c2C(=O)NC2CC2)cc1)c1ccc(F)cc1 [Example 131, N^5-cyclopropyl-N^4-{4-[(4-fluorobenzoyl)amino]phenyl}-1H-imidazole-4,5-dicarboxamide]
350	O=C(Nc1ccc(NC(=O)c2nc[nH]c2C(=O)NCCCN2CCOCC2)cc1)c1ccccc1Cl [Example 200, N^4-{4-[(2-chlorobenzoyl)amino]phenyl}-N^5-[3-(morpholin-4-yl)propyl]-1H-imidazole-4,5-dicarboxamide]
20	CNC(=O)c1nc[nH]c1C(=O)Nc1ccc(NC(=O)c2ccc(F)cc2Cl)cc1 [Example 12, N^5-{4-[(2-chloro-4-fluorobenzoyl)amino]phenyl}-N^4-methyl-1H-imidazole-4,5-dicarboxamide]
